Test results from paper PMC8205039, “Synthesis and biological evaluation of 4-phenoxy-phenyl isoxazoles as novel acetyl-CoA carboxylase inhibitors” (Journal of Enzyme Inhibition and Medicinal Chemistry, 2021).

What was measured:
[1] = system: HepG2 cells; experiment: MTT assay, HepG2; assay type: cell-based; conditions: Homo sapiens, single concentration of 10 µM (Figure S2), read-out: inhibitory rate, HepG2
[2] = system: A549 cells; experiment: MTT assay, A549; assay type: cell-based; conditions: Homo sapiens, single concentration of 10 µM (Figure S2), read-out: inhibitory rate, A549
[3] = system: HepG2 cells; experiment: MTT assay, HepG2; assay type: cell-based; conditions: Homo sapiens, 72 h, mean ± SD (n = 3)
Description: (§1) The cytotoxicity of target compounds was assessed by MTT assay. Briefly, cells were seeded in 96-well plates at a density of 2500–3000 per well and incubated for 24 h in a CO2 incubator. Then, the cells were treated with candidate compounds at seven different concentrations for 72 h. At the end of treatment, the MTT reagent (5 mg/mL) was added to determine the cell viability. After 4 h of incubation, the resulting medium was removed, and 100 µL of DMSO was added to dissolve the formed formazan. Finally, the absorbance at 550 nm was measured by a microplate reader (Varioskan LUX, […]), with the IC50 values calculated using GraphPad Prism 5 software (GraphPad Software, La Jolla, CA, USA).

[4] = system: MDA-MB-231 cells; experiment: Cell apoptosis assay (Annexin V-FITC/PI flow cytometry); assay type: cell-based, human; conditions: 48 h
Description: MDA-MB-231 cells were plated on 6-well plates (3 × 10^4 cells/well) and incubated with various concentrations of 6g (0.75, 1.5, and 3 µM) and 6l (0.1, 0.2, and 0.4 µM) for 48 h. Then, cells were harvested by trypsinization and centrifugation, followed by staining with annexin-V-FITC in binding buffer for 15 min protected from light. Subsequently, the cells were stained with PI, and the proportion of apoptotic cells was measured by flow cytometer (Facs Canto II, Becton Dickinson, San Jose, CA, USA)[36].

[5] = system: intracellular malonyl-CoA levels in MDA-MB-231 cells; experiment: Measurement of malonyl-CoA levels (Elisa); assay type: cell-based, human; conditions: maximum test concentration, 48 h
Description: MDA-MB-231 cells were seeded on 6-well plates and treated with various concentrations of 6g and 6l for 48 h. Cells were collected, washed with PBS, and lysed with 1% Triton X-100. The lysates were centrifuged at 4 °C for 15 min. The malonyl-CoA levels were determined using Elisa assay kits (Ruixin Biotech, Beijing, China).

[6] = target: T1, hACC1 (Homo sapiens, UniProt Q13085); experiment: ACC inhibitory assay (ADP-Glo luminescent ADP detection); assay type: biochemical; conditions: for inhibition at 0.1 µM: hACC1, 0.1 μM, mean of two independent experiments (Table 2), read-out: IRs (%) 0.1 μM; for IC50: hACC1, mean ± SD
T1 construct: purchased BPS Biosciences 50200
Description: The hACC1 inhibitory activity of target compounds was evaluated using the ADP-Glo^TM kinase assay according to our previous report. In brief, 4.5 µL of working solution containing recombinant ACC1 (BPS Biosciences, 50200) and 0.5 µL of diluted compound solution were added to a 384-well Optiplate plate (Perkin Elmer, 6007290, PerkinElmer, Waltham, MA, USA), and incubated at room temperature for 15 min. Then, 5 µL of substrate mixture was added to the 384-well plate to start the reaction. After incubating for 60 min at room temperature, 10 µL of ADP-Glo reagents were added to the 384-well plate, and incubated for another 40 min to deplete the remaining ATP. Finally, 20 µL of kinase detection reagents were added to the plate and incubated for 40 min to convert ADP to ATP. The luminescent signal of ATP was determined using an Envision multifunction reader (Perkin Elmer, 2104–0010, PerkinElmer, Waltham, MA, USA). The IC50 values were calculated using GraphPad Prism 5 software (GraphPad Software, La Jolla, CA, USA).

[7] = Cell viability of non-cancerous HUVEC; assay type: cell-based, human; conditions: human, HUVEC cells (non-cancerous)
Description: (§2) To investigate the selectivity of the synthesised compounds towards cancer cells, the non-cancerous HUVEC cell line was selected for testing.
as §1

[8] = system: HUVEC; experiment: Cell viability of non-cancerous HUVEC; assay type: cell-based, human; conditions: 10 μM
Description: as §2, §1

[9] = system: A549 cells; experiment: MTT assay, A549; assay type: cell-based; conditions: Homo sapiens, 72 h, mean ± SD (n = 3)
Description: as §1

[10] = system: MDA-MB-231 cells; experiment: MTT assay, MDA-MB-231; assay type: cell-based; conditions: Homo sapiens, 72 h, mean ± SD (n = 3)
Description: as §1

[11] = system: MDA-MB-231 cells; experiment: Cell-cycle assay (PI flow cytometry); assay type: cell-based, human; conditions: 48 h
Description: MDA-MB-231 cells were seeded on 6-well plates (3 × 10^4 cells/well) and incubated with indicated concentrations of 6g (0.75, 1.5, and 3 µM) and 6l (0.1, 0.2, and 0.4 µM) for 48 h in a 5% CO2 incubator. Then, the cells were collected by trypsinization and centrifugation, followed by fixing in 70% pre-cooled ethanol overnight. Finally, the cells were stained with PI/RNase A according to the manual and measured by flow cytometer (Facs Canto II, Becton Dickinson, San Jose, CA’, USA)[35].

[12] = system: MDA-MB-231 cells; experiment: MTT assay, MDA-MB-231; assay type: cell-based; conditions: Homo sapiens, single concentration of 10 µM (Figure S2), read-out: inhibitory rate, MDA-MB-231

IC50 [3] [µM]	inhibition at 0.1 µM [6] [%]	IC50 [6] [nM]	IC50 [9] [µM]	IC50 [10] [µM]	melting point [°C]	SMILES	inhibition at 10 µM [1] [%]	inhibition at 10 µM [2] [%]	reduction of intracellular malonyl-CoA levels compared to the control group [5] [%]	viability at 72 h, 10 µM [7] [%]	IRs towards HUVEC [8]	inhibition at 10 µM [12] [%]	other results
1.73 ± 0.55	51.4	99.8 ± 3.7	1.1 ± 0.12	1.5 ± 0.58	131.5 to 132.5	CC(=O)NC(C)c1cc(-c2ccc(Oc3ccc(OCC4CC4)cc3)cc2)no1 (centres unmarked) [Compound 6g, N-(1-(3-(4-(4-(Cyclopropylmethoxy)phenoxy)phenyl)isoxazol-5-yl)ethyl)acetamide]	> 80	> 80	~23.59	87.3 ± 6.19	less than 20%	> 80	total percentage of the early and late apoptotic cells ([4]; 0.75 μM): 8.34%; total percentage of the early and late apoptotic cells ([4]; 1.5 μM): 13.83%; total percentage of the early and late apoptotic cells ([4]; 3 μM): 20.25%; cells at G0/G1 phase ([11]; 0.75 μM): 69.37%; cells at G2/M phase ([11]; 0.75 μM): 12.01%; cells at S phase ([11]; 0.75 μM): 18.62%; cells at G0/G1 phase ([11]; 1.5 μM): 73.66%; cells at G2/M phase ([11]; 1.5 μM): 10.51%; cells at S phase ([11]; 1.5 μM): 15.83%; cells at G0/G1 phase ([11]; 3 μM): 79.97%; cells at G2/M phase ([11]; 3 μM): 9.96%; cells at S phase ([11]; 3 μM): 10.08%
0.26 ± 0.02	37.9	279 ± 13.1	0.22 ± 0.07	0.21 ± 0.01	164.5 to 165.5	CC(NC(=O)Cc1ccccc1)c1cc(-c2ccc(Oc3ccccc3)cc2)no1 (centres unmarked) [Compound 6l, N-(1-(3-(4-Phenoxyphenyl)isoxazol-5-yl)ethyl)-2-phenylacetamide]	> 80	> 80	~25.85	89.5 ± 3.21	less than 20%	> 80	Q2 (upper right quadrant, late apoptotic cells) ([4]; 0.4 μM): 17.50%; Q3 (bottom right quadrant, early apoptotic cells) ([4]; 0.4 μM): 12.20%; cells at G0/G1 phase ([11]; 0.1 μM): 71.79%; cells at G2/M phase ([11]; 0.1 μM): 12.01%; cells at S phase ([11]; 0.1 μM): 16.20%; cells at G0/G1 phase ([11]; 0.2 μM): 76.79%; cells at G2/M phase ([11]; 0.2 μM): 8.79%; cells at S phase ([11]; 0.2 μM): 14.42%; cells at G0/G1 phase ([11]; 0.4 μM): 81.93%; cells at G2/M phase ([11]; 0.4 μM): 5.32%; cells at S phase ([11]; 0.4 μM): 12.76%
